Experimental data published in patent US11447486B2, “2-amino-benzimidazole derivatives and their use as 5-lipoxygenase and/or prostaglandin E synthase inhibitors” (INSTITUT PASTEUR KOREA, priority 2014, dated 2022).

Experiments:
human 5-LOX = target: T1, human 5-LOX (Homo sapiens, UniProt P09917); test: 5-LOX enzyme activity, fluorescence method (5-HPETE, H2DCFDA); format: biochemical; conditions: read-out: 5-LO (IC50)
T1 construct: purchased Cayman 60402; host or cells: insect cells (lysate)
T1 sequence (P09917 1-674): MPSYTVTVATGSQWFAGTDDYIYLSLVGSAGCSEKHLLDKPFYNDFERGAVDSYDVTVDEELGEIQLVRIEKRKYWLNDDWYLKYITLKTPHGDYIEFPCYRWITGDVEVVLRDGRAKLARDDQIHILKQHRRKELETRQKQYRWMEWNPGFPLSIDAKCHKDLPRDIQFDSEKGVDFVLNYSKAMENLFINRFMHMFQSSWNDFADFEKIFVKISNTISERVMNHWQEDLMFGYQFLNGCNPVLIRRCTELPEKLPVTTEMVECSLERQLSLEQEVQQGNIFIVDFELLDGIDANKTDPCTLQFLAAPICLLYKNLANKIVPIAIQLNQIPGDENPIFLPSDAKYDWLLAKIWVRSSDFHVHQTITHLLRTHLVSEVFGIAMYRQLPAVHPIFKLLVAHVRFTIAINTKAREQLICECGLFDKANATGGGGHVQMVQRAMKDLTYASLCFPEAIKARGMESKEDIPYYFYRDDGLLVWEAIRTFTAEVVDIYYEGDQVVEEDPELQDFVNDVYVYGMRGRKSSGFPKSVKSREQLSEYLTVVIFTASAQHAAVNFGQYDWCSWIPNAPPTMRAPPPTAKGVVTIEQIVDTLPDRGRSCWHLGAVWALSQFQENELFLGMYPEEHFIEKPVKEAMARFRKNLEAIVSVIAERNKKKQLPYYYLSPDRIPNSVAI
In short: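 Compound (0.5 nM to 10 uM) pre-incubated 5 min with enzyme; reaction started with ATP (100 uM final) and arachidonic acid (3 uM final). All steps at room temperature, fluorescence read-out.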

Rat whole blood (RWB) = test: LTB4 secretion assay in RWB (rat whole blood); format: cell-based; conditions: Rattus norvegicus
In short: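 Heparinized blood from male Sprague Dawley rats (6-9 weeks) diluted 1:1 in RPMI, pre-incubated 15 min at 37 °C with compound (2.5 nM to 50 uM). Stimulated with 10 uM calcium ionophore A23187 for 10 min at 37 °C, stopped with ice-cold PBS; LTB4 in supernatant quantified by EIA.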

[1] = test system: Rat basophilic leukemia (RBL) cells; test: LTB4 secretion assay in RBL (rat basophilic leukemia cells); format: cell-based; conditions: Rattus norvegicus, RBL
In short: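 Cells seeded 2×10^4/well the day before, then pre-incubated 15 min at 37 °C in EMEM/0.5% FBS with compound (5 nM to 100 uM). Stimulation with 2.5 uM arachidonic acid plus 5 uM A23187 (final) for 10 min at 37 °C; LTB4 in supernatant quantified by EIA.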

SMILES	IC50 (human 5-LOX) [µM]	EC50 (Rat whole blood (RWB)) [µM]	EC50 [1] [µM]
Cn1c(NCc2ccc(Oc3ncc(Cl)cn3)cc2)nc2ccc(N)cc21 [Compound 288]	< 1	< 10	< 10
Cc1cc(Nc2ccc3nc(NCc4ccc(Nc5ncc(Cl)cn5)cc4)n(C)c3c2)n[nH]1 [Compound 486]	< 1	< 10	< 10
CC(Nc1ccc2nc(N(C)C)[nH]c2c1)c1ccc(Oc2ccc(OC(F)(F)F)cc2)nc1 (stereo not drawn) [Compound 150]	< 1	> 20	< 10
Nc1ccc2[nH]c(NCc3ccc(Oc4ccc(F)cc4)cc3)nc2c1 [Compound 94]	< 1	< 10	< 10
Cn1c(NCc2ccc(COc3ccc(Cl)cn3)cc2)nc2ccc(NC3COC3)cc21 [Compound 305]	< 1	> 20	< 10
CC(C)n1c(NCc2ccc(Oc3ccc(Cl)cn3)cc2)nc2ccc(NC3COC3)cc21 [Compound 271]	< 1	< 10	< 10
Cn1c(NCc2ccc(Oc3cnc(N)nc3)cc2)nc2ccc(NC3COC3)cc21 [Compound 369]	< 1	< 10	< 10
Nc1ccc2[nH]c(N3CCCC3c3ccc(Oc4ccc(Cl)cc4)cc3)nc2c1 (stereo not drawn) [Compound 145]	< 1	< 10	< 10
CCn1c(NCc2ccc(Oc3ncc(C(F)(F)F)cn3)cc2F)nc2ccc(Nc3cc(C)[nH]n3)cc21 [Compound 540]	< 1	< 10	< 10
Nc1ccc2nc(NC3CCCC3)n(Cc3ccc(Oc4ccc(Cl)cc4)cc3)c2c1 [Compound 161]	< 1	10 to 20	< 10
Cn1c(NCCOc2ccc(OC(F)(F)F)cc2Cl)nc2cc(N)ccc21 [Compound 57]	< 1	> 20	< 10
CCn1c(NCc2ccc(Oc3cnc(Cl)cn3)cc2)nc2ccc(Nc3cc(C(C)(C)C)[nH]n3)cc21 [Compound 514]	< 1	< 10	< 10
Nc1ccc2c(c1)nc(N1CCC1)n2CCOc1ccc(OC(F)(F)F)cc1 [Compound 70]	< 1	> 20	< 10
CC(Nc1ccc2[nH]c(N(C)C)nc2c1)c1ccc(Oc2ccc(OC(F)(F)F)cc2)cc1 (stereo not drawn) [Compound 127]	< 1	> 20	< 10
CCC(Nc1nc2ccc(Nc3cc(C)[nH]n3)cc2n1C)c1ccc(Oc2ncc(C(F)(F)F)cn2)cc1 (stereo not drawn) [Compound 534]	< 1	< 10	< 10
Nc1ccc2nc(N)n(Cc3ccc(COc4ccc(Cl)cn4)cc3)c2c1 [Compound 249]	< 1	< 10	< 10
Fc1ccc(CNc2nc3ccc(N4CCC(Oc5ccc(OC(F)(F)F)cc5)C4)cc3[nH]2)cc1 (stereo not drawn) [Compound 77]	< 1	< 10	10 to 20
Cn1nc(Nc2ccc3nc(NCc4ccc(Oc5ncc(Cl)cn5)cc4F)n(C)c3c2)cc1C(F)(F)F [Compound 503]	< 1	< 10	< 10
Nc1ccc2[nH]c(NCc3ccc(Oc4ccc(F)c(F)c4)cc3)nc2c1 [Compound 113]	< 1	< 10	< 10
Cn1c(NCc2ccc(Oc3ncc(Cl)cn3)cc2)nc2ccc(NC(C)(C)C(N)=O)cc21 [Compound 358]	< 1	< 10	< 10
CCC(Nc1nc2ccc(Nc3cc(C)[nH]n3)cc2n1C)c1ccc(Oc2ncc(C(F)(F)F)cn2)cc1F (stereo not drawn) [Compound 541]	< 1	< 10	< 10
CCn1c(NCc2ccc(Oc3ncc(C(F)(F)F)cn3)cc2)nc2ccc(Nc3cc(C)[nH]n3)cc21 [Compound 531]	< 1	< 10	< 10
Cn1c(NCc2ccc(C(=O)Nc3ccc(Cl)cn3)cc2)nc2ccc(NC3COC3)cc21 [Compound 303]	< 1	> 20	> 20
